Assay results published in PubChem BioAssay (NCI).
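Tested at 5 concentrations; 48 h exposure; 96-well plates; endpoints linearly interpolated, else capped at highest concentration. GI50 is the concentration that inhibits growth by half. TGI: concentration producing complete growth inhibition.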 Where a SMILES comes first, the peptide text is derived from it. The star is where a group is joined. Bn = c1ccc(C*)cc1

test system: UO-31 renal; test: growth of human tumour cells (NCI), 48 h

`O=C(O)CSC(NC(=O)C(C(F)(F)F)C(F)(F)F)(C(F)(F)F)C(F)(F)F` and `O=C(O)CC(NC(=O)/C(=C/c1ccccc1O)NC(=O)c1ccccc1)C(=O)O` (stereo unspecified) cannot be ordered by TGI: > 100 µM for the first, > 100 µM for the second.

`CN(C)P(=O)(Oc1occc1C(O)Cc1ccccc1)N(C)C` (stereo unspecified) and `COC(=O)C(CC(C)C)NC(=O)C(N)Cc1ccc(OCc2ccccc2)cc1` (stereo unspecified) (H-Tyr(Bn)-Leu-OMe; configuration not given here) cannot be ordered by TGI: > 100 µM for the first, > 10 µM for the second.

Going from `CC1=CC(=O)CC2(C)CCC(C(C)CC(=O)CC(C)C)CC12` (stereo unspecified) to `CCOC(=O)[C@@H]1ON2O[C@@H](OC3CCCC3(c3ccccc3)c3ccccc3)C[C@H]3OC(=O)[C@@H]1C32` (stereo partly specified), the TGI falls from > 100 µM to 41.1 µM.

Compared with `COc1cc2c(cc1OC)C13CC[N+]4(C)CC5=CCOC6CC(=O)N2C1C6C5CC34[O-]` (stereo unspecified), `CCN(CC)CCNc1ccc2ncn3c4cc(OC)c(OC)c(=O)c4c(O)c1c23` is lower in TGI: > 100 µM for the first, 25.7 µM for the second.

Going from `CC(C)(C)OC(=O)C1C(=O)NC(=O)CC1C(COCc1ccccc1)OCc1ccccc1` (stereo unspecified) to `O=c1n(Cc2ccccc2)c(=O)n2c(=O)n(Cc3ccccc3)c(=O)n12`, the TGI rises from 55.8 µM to > 100 µM.

Compared with `Nc1nc(Nc2ccc(Cl)cc2)sc1C(=O)c1cccs1`, `S=C1CC(c2ccccc2)Sc2ccc(Cl)cc2N1` (stereo unspecified) is higher in TGI: 95.9 µM for the first, > 100 µM for the second.

`Cc1c(C#N)c(N)n(C2OCC(O)C(O)C2O)c(=S)c1C#N` (stereo unspecified) and `N#Cc1c(C#N)c(-c2ccccc2)n(-c2ccccc2)c1N` cannot be ordered by TGI: > 100 µM for the first, > 100 µM for the second.

Going from `COc1ccc2c(c1)CCN=C2c1ccccc1CCCCl` to `COc1ccccc1N1CCN(CCCNC(=O)c2cc(Cl)c(N)c(Cl)c2)CC1`, the TGI rises from 26.7 µM to 58.1 µM (2.2-fold).

`COc1ccc(-c2csc(NC(=O)CSc3nc(C)c(-c4ccccc4)n3Nc3ccccc3)n2)cc1` and `O=C(c1ccccc1)N1C(=S)N=C(Nc2ccccc2)C1=Nc1ccccc1` cannot be ordered by TGI: > 100 µM for the first, > 100 µM for the second.

Going from `Clc1ccc(Cl)c(SCCCN2CCNCC2)c1` to `O=C(CNCc1ccccc1)Oc1c(Cl)c(Cl)c(Cl)c(Cl)c1Cl`, the TGI rises from 30.1 µM to 52.1 µM (1.7-fold).

`CCOC(=O)C1(C(=O)OCC)CCCN1C(=O)[C@H](CNC(=O)OC(C)(C)C)NC(=O)OCc1ccccc1` and `CCCCC/C(C=O)=C\c1ccccc1` cannot be ordered by TGI: > 100 µM for the first, > 100 µM for the second.

`O/C(=C\c1nc2ccccc2nc1NC12CC3CC(CC(C3)C1)C2)c1ccc(Br)cc1` and `O=C(O)c1c2c(cc3c1CC1(Cc4ccccc4C1=O)C3)CCC2` (stereo unspecified) cannot be ordered by TGI: > 10 µM for the first, > 100 µM for the second.

`CCN1C(=O)N(CC)C2Nn3c(s/c(=C4\C(=O)N(C)c5ccccc54)c3=O)=NC21` (stereo unspecified) and `N#CC(=N)c1ncn(-c2ccccc2N)c1N` cannot be ordered by TGI: > 100 µM for the first, > 100 µM for the second.

`COc1ccc(N=NC(=Nc2ccc(F)cc2)c2ccc(N(CCC#N)CCC#N)cc2)cc1` and `O=C(Nc1ccc(-n2cc(-c3ccncc3)c(-c3ccc(O)c(Cl)c3)n2)cc1)Nc1cccc(Cl)c1Cl` cannot be ordered by TGI: > 100 µM for the first, > 32.5 µM for the second.

First: COc1ccc(-c2csc(NC(=O)CSc3nc(C)c(-c4ccccc4)n3Nc3ccccc3)n2)cc1
Second: O=C(Nc1ccc(-n2cc(-c3ccncc3)c(-c3ccc(O)c(Cl)c3)n2)cc1)Nc1cccc(Cl)c1Cl
The GI50 of the first is 3.5-fold lower: 1.89 µM for the first, 6.67 µM for the second.

`CCN1C(=O)N(CC)C2Nn3c(s/c(=C4\C(=O)N(C)c5ccccc54)c3=O)=NC21` (stereo unspecified) was tested, and the GI50 was 2.82 µM.

test system: MCF7 breast; test: growth of human tumour cells (NCI), 48 h

Going from `CN(C)P(=O)(Oc1occc1C(O)Cc1ccccc1)N(C)C` (stereo unspecified) to `CC(C)(C)OC(=O)C1C(=O)NC(=O)CC1C(COCc1ccccc1)OCc1ccccc1` (stereo unspecified), the TGI falls from > 100 µM to 57.7 µM.

Going from `CC1=CC(=O)CC2(C)CCC(C(C)CC(=O)CC(C)C)CC12` (stereo unspecified) to `O=C(CCCN1CCC2(CC1)C(=NC1CCCCC1)NC(=O)N2c1ccccc1)c1ccc(F)cc1`, the TGI falls from 66.8 µM to 33.1 µM (2-fold).

`OCC(O)C(O)C(O)/C=N/Nc1nc(O)c(/C=C2\C=Nc3ccccc32)[nH]1` (stereo unspecified) and `O=C(O)CC(NC(=O)/C(=C/c1ccccc1O)NC(=O)c1ccccc1)C(=O)O` (stereo unspecified) cannot be ordered by TGI: > 100 µM for the first, > 100 µM for the second.

First: COc1cc2c(cc1OC)C13CC[N+]4(C)CC5=CCOC6CC(=O)N2C1C6C5CC34[O-] (stereo unspecified)
Second: CCN(CC)CCNc1ccc2ncn3c4cc(OC)c(OC)c(=O)c4c(O)c1c23
The TGI of the first is higher: > 100 µM for the first, 15.2 µM for the second.

`Nc1nc(Nc2ccc(Cl)cc2)sc1C(=O)c1cccs1` and `S=C1CC(c2ccccc2)Sc2ccc(Cl)cc2N1` (stereo unspecified) cannot be ordered by TGI: > 100 µM for the first, > 100 µM for the second.

`Cc1c(C#N)c(N)n(C2OCC(O)C(O)C2O)c(=S)c1C#N` (stereo unspecified) and `N#Cc1c(C#N)c(-c2ccccc2)n(-c2ccccc2)c1N` cannot be ordered by TGI: > 100 µM for the first, > 100 µM for the second.

Going from `CCOC(=O)[C@@H]1ON2O[C@@H](OC3CCCC3(c3ccccc3)c3ccccc3)C[C@H]3OC(=O)[C@@H]1C32` (stereo partly specified) to `O=c1n(Cc2ccccc2)c(=O)n2c(=O)n(Cc3ccccc3)c(=O)n12`, the TGI rises from 52.1 µM to > 100 µM.

`O=C1CS(=O)C23c4cc5ccccc5n4CCC2CCCN13` (stereo unspecified) and `O=C(O)c1c2c(cc3c1CC1(Cc4ccccc4C1=O)C3)CCC2` (stereo unspecified) cannot be ordered by TGI: > 100 µM for the first, > 100 µM for the second.

`CN1COCc2cc3cc4c(cc3nc21)OCCO4` and `COc1cc([C@@H]2c3cc4c(cc3[C@@H](c3c(O)cc(O)c5c3O[C@H](c3ccc(O)c(O)c3)[C@@H](O)C5)[C@H]3COC(=O)[C@H]23)OCO4)cc(OC)c1O` cannot be ordered by TGI: > 100 µM for the first, > 100 µM for the second.

First: Cc1ccc(-c2c(C#N)c(-c3ccc([N+](=O)[O-])cc3)c(C#N)c(=O)n2NS(=O)(=O)c2ccccc2)cc1
Second: COc1ccc(-c2csc(NC(=O)CSc3nc(C)c(-c4ccccc4)n3Nc3ccccc3)n2)cc1
The TGI of the first is lower: 54.1 µM for the first, > 100 µM for the second.

`COc1ccc2c(c1)CCN=C2c1ccccc1CCCCl` and `COc1ccccc1N1CCN(CCCNC(=O)c2cc(Cl)c(N)c(Cl)c2)CC1` cannot be ordered by TGI: > 100 µM for the first, > 100 µM for the second.

Going from `Clc1ccc(Cl)c(SCCCN2CCNCC2)c1` to `O=C(CNCc1ccccc1)Oc1c(Cl)c(Cl)c(Cl)c(Cl)c1Cl`, the TGI rises from 40 µM to > 100 µM.

`CCOC(=O)C1(C(=O)OCC)CCCN1C(=O)[C@H](CNC(=O)OC(C)(C)C)NC(=O)OCc1ccccc1` and `CCCCC/C(C=O)=C\c1ccccc1` cannot be ordered by TGI: > 100 µM for the first, > 100 µM for the second.

`O/C(=C\c1nc2ccccc2nc1NC12CC3CC(CC(C3)C1)C2)c1ccc(Br)cc1` and `CSC(SC)=C1C(=O)N(c2ccccc2)N=C1C` cannot be ordered by TGI: > 10 µM for the first, 46 µM for the second.

`CCN1C(=O)N(CC)C2Nn3c(s/c(=C4\C(=O)N(C)c5ccccc54)c3=O)=NC21` (stereo unspecified) and `N#CC(=N)c1ncn(-c2ccccc2N)c1N` cannot be ordered by TGI: > 100 µM for the first, > 100 µM for the second.

`COc1ccc(N=NC(=Nc2ccc(F)cc2)c2ccc(N(CCC#N)CCC#N)cc2)cc1` and `O=C(Nc1ccc(-n2cc(-c3ccncc3)c(-c3ccc(O)c(Cl)c3)n2)cc1)Nc1cccc(Cl)c1Cl` cannot be ordered by TGI: > 100 µM for the first, > 32.5 µM for the second.

Going from `COc1ccc(-c2csc(NC(=O)CSc3nc(C)c(-c4ccccc4)n3Nc3ccccc3)n2)cc1` to `O=C(Nc1ccc(-n2cc(-c3ccncc3)c(-c3ccc(O)c(Cl)c3)n2)cc1)Nc1cccc(Cl)c1Cl`, the GI50 falls from 8.25 µM to 4.2 µM (2-fold).

With `CCN1C(=O)N(CC)C2Nn3c(s/c(=C4\C(=O)N(C)c5ccccc54)c3=O)=NC21` (stereo unspecified) the GI50 was 1.03 µM.

test system: OVCAR-8 ovarian; test: growth of human tumour cells (NCI), 48 h

First: O=C(O)CSC(NC(=O)C(C(F)(F)F)C(F)(F)F)(C(F)(F)F)C(F)(F)F
Second: OCC(O)C(O)C(O)/C=N/Nc1nc(O)c(/C=C2\C=Nc3ccccc32)[nH]1 (stereo unspecified)
The TGI of the first is lower: 83.3 µM for the first, > 100 µM for the second.

Going from `CN(C)P(=O)(Oc1occc1C(O)Cc1ccccc1)N(C)C` (stereo unspecified) to `CC1=CC(=O)CC2(C)CCC(C(C)CC(=O)CC(C)C)CC12` (stereo unspecified), the TGI falls from > 100 µM to 53.2 µM.

For `COc1cc2c(cc1OC)C13CC[N+]4(C)CC5=CCOC6CC(=O)N2C1C6C5CC34[O-]` (stereo unspecified), the TGI was > 100 µM.
